Results from EP3578559B1, “DYE FOR FLUORESCENT STAINING OF STRATUM CORNEUM, MANNER OF ITS SYNTHESIS AND APPLICATION IN MICROSCOPY, INCLUDING IDENTIFICATION OF ROUTES OF SUBSTANCES PENETRATION TO THE SKIN AND ASSESSMENT OF STRUCTURAL DISORDERS OF THIS LAYER” (Gdanski Uniwersytet Medyczny, priority 2018, dated 2019).
“Also recorded” adds a separate entry of the source. Where two headings read alike, the source gives them in different places.

Assays:
[1] = physchem
[2] = Octanol/water partition coefficient (logP), experimentally assigned; settings: for octanol/water division ratio: ratio of concentrations of the dye in octanol/water
[3] = system: stratum corneum; test: Fluorescent microscopy staining of stratum corneum of human skin ex vivo
Description: To obtain microscopic images of stratum corneum in a fluorescent microscope (Nikon Eclipse 50, Japan; the mercury lamp; the filter for wavelength: 330-380 nm; software for data acquisition NIS Elements AR 3.2.) Standard methodology was applied. A fragment of human skin ex vivo (1 cm x 1 cm) was subject to heat separation procedure (temperature 60 °C; 30 seconds) in order to separate epidermis (including stratum corneum) from the dermis. Fragments of the epidermis were placed on a microscopic glass, fluorescent dyes were applied and then incubated in thermostat for 10 minutes at 37 °C. After this time, the excess of dyes was removed by the use of laboratory absorption blotting paper and images of microscopic magnification were recorded in 10 x magnification of the lens, using the exposure time of 15-600 ms.

[4] = Fluorescence optical properties of the dye (Stokes shift, absorption/emission); type: physicochemical
[5] = commercial dye; cited from earlier work
[6] = post application of water / hydrophilic compounds, 10x

With CC[N+]1(CC)CN2C(=N1)C(C(=O)[O-])=Cc1ccccc12 [P4] the logP [1] was -1.9, the octanol/water division ratio [2] was 0,01 and the “characterization of hydrophilicity/lipophilicity with regard to diffusion to stratum corneum” value ([3]; on the basis of the conducted research) was “too hydrophilic”. For the same molecule, the “staining of the lipids inside the lipid matrix or corneocytes proteins” value ([3]; stratum corneum structures) was “lack of staining”.
In the case of CCCCCCOC(=O)c1ccccc1-c1c2ccc(=[N+](CC)CC)cc-2oc2cc(N(CC)CC)ccc12 [RBHE, Rhodamine hexylester], the “microscope image quality of stained structures” value ([3]; after application of siloxane with a cyclic structure, compared with SAFQ8MeAKT, 10x) is reported as “not as explicit”, the staining of canyons ([3]; lipophilic compounds (siloxane D4), 10x) is reported as “does not stain canyons so vividly” and the staining of canyons [3, 6] is reported as “canyons are not visible; also recorded: does not dye canyons”.
In the case of CC[N+]1(CC)CN2C(=N1)C(C(=O)ON1C(=O)CCC1=O)=Cc1ccc(C)cc12.[Cl-] [SAFQ8MeAKT, 4-((2,5-dioxopyrrolidin-1-yloxy)carbonyl)-2,2-diethyl-8-methyl-1,2-dihydro-[1,2,4]triazolo[4,3-a]quinolin-2-ium chloride], the logP [1] is reported as -0.43, the octanol/water division ratio [2] is reported as 0,37 and the “greater lipophilicity than P4 dye” value ([2]; relative to P4 dye) is reported as “approx. 40 times”. For the same molecule, the Stokes shift [4] was 95 nm, the characteristic absorption [4] was 365 nm and the characteristic emission [4] was 460 nm. The staining of corneocytes ([3]; 10x) was “staining of the inside of corneocytes” and the staining of canyons [3, 6] was “canyons are stained”.
For CCN(CC)c1ccc2c(-c3ccc(S(=O)(=O)O)cc3S(=O)(=O)[O-])c3ccc(=[N+](CC)CC)cc-3oc2c1 [SRB, Sulforhodamines B], the characteristic absorption [5] is listed as 565 nm, the characteristic emission [5] is listed as 590 nm and the staining of corneocytes ([3]; 10x) is listed as “noticeably stains corneocytes”. The staining of canyons ([3]; dye alone (Fig. 11), 10x) was “does not dye the canyons”.
